From patent US5059624A, “Guanidine derivatives having hypotensive activity, composition containing them and process for obtaining them” (Consiglio Nazionale Delle Ricerche, priority 1988, dated 1991)
Read-outs that look alike come from different tables or passages of the source. Where a SMILES comes first, the peptide text is derived from it.

Tests used:
male Wistar rats [1] = assay: Comparison with known active ingredients in male Wistar rats under sodium thiopental anaesthesia, rapid i.v. or 5 min infusion; format: in vivo, rat (male Wistar); conditions: for Δ AP DIASTOLIC / Δ AP SYSTOLIC / Δ HR / Δ dp/dt: i.v., maximum response
Procedure: In order to compare the activity of the compounds of the present invention to that of the products of the prior art, various doses of known anti-hypertensive, hypotensive and vasoactive drugs were administered to male Wistar rats under general anaesthesia by sodium thiopental (50 mg/kg, i.p.). The administration was effected through "rapid" i.v. route or through intravenous infusion (inf.) for a time of 5 minutes.
The dose of each product is referred to the base, and the volumes injected were of 100 mcl in case of i.v. administration and […] total (0.9% sodium chloride solution) in case of infusion. The various parameters were evaluated in the same way as in the preceding experiments.

male Wistar rats [2] = system: male Wistar rats
Procedure: In order to check its activity, diguanido-II was dissolved in a 0.9 % sodium chloride solution and administered through "rapid" i.v. route in male Wistar rats, under general anaesthesia obtained by means of 10% ethyl urethan (i ml/hg).
The active ingredients called guanido-III, -IV, -V, as well as agmatine and galegine, were also tested, after having been administered through "rapid" i.v. route in male Wistar rats (weighing average 280±5 g) under general anaesthesia obtained by means of 10% ethyl uretan (1 ml/hg, i.p.). The general experimental conditions were exactly the same as previously mentioned for guanido-I and diguanido-II, so that the cardiovascular and respiratory effects could be compared.
The parameters measured are as follows: systolic and diastolic systemic arterial pressure (AP), heart rate (HR), maximum rate of increase in the left ventricular isovolumetric pressure (dp/dt), respiratory frequency (RF) and tidal volume (TV). The doses (in μg/kg body weight, referred to the active substance) varied from 50 μg/kg to 6,400 μg/kg (ratio=2.0); in some cases higher does have been employed.

[3] = Lethal dose 50 (LD50) through i.p. route in mice; conditions: mouse, in vivo, ip
Procedure: The lethal dose 50 (LD50) of guanido-I through i.p. route in mice turned out to be 57 mg±3.6 per kg.
The lethal dose 50 (LD50) of the diguanido-II through i.p. route in mice, turned out to be 7 mg±0.6 per kg.

With `NC(N)=NCCC[C@H](NC(=O)[C@H](Cc1ccccc1)NC(=O)[C@@H]1CCCN1C(=O)[C@H](CO)NC(=O)[C@H](Cc1ccccc1)NC(=O)CNC(=O)[C@@H]1CCCN1C(=O)[C@@H]1CCCN1C(=O)[C@@H](N)CCCN=C(N)N)C(=O)O` [Bradykinin] (H-RPPGFSPFR-OH) the “Δ AP DIASTOLIC” value (male Wistar rats [1]; 0.75 mcg/kg) was -18 ± 4 mmHg, the “Δ AP SYSTOLIC” value (male Wistar rats [1]; 0.75 mcg/kg) was -18 ± 3 mmHg and the “Δ HR” value (male Wistar rats [1]; 0.75 mcg/kg) was -11 ± 2 beats/min. It also gave a Δ dp/dt (male Wistar rats [1]; 0.75 mcg/kg) of -830 ± 124 mmHg/sec.

For `COc1ccc(C=CC(=O)NCCCCNC(=N)NCC=C(C)C)cc1OC` [guanido-I], the “Δ AP DIAST” value (male Wistar rats [2]; 50 μg/kg i.v.) was -5 ± 1 mmHg, the “Δ AP SYST” value (male Wistar rats [2]; 50 μg/kg i.v.) was -4 ± 2 mmHg and the “Δ HR” value (male Wistar rats [2]; 50 μg/kg i.v.) was “+8 ± 3 beats/min”. The “Δ RF” value (male Wistar rats [2]; 50 μg/kg i.v.) was “+6 ± 2 acts/min”, the Δ dp/dt (male Wistar rats [2]; 50 μg/kg i.v.) was “+52 ± 8 mmHg/sec” and the “Δ AP DIAST” value (male Wistar rats [2]; 100 μg/kg i.v.) was -6 ± 2 mmHg. The “Δ AP SYST” value (male Wistar rats [2]; 100 μg/kg i.v.) was -6 ± 2 mmHg, the “Δ HR” value (male Wistar rats [2]; 100 μg/kg i.v.) was “+10 ± 1 beats/min” and the “Δ RF” value (male Wistar rats [2]; 100 μg/kg i.v.) was “+9 ± 4 acts/min”. For the same molecule, the Δ dp/dt (male Wistar rats [2]; 100 μg/kg i.v.) was “+141 ± 25 mmHg/sec”, the “Δ AP DIAST” value (male Wistar rats [2]; 200 μg/kg i.v.) was -10 ± 2 mmHg and the “Δ AP SYST” value (male Wistar rats [2]; 200 μg/kg i.v.) was -11 ± 3 mmHg. For the same molecule, the “Δ HR” value (male Wistar rats [2]; 200 μg/kg i.v.) was “+13 ± 2 beats/min”, the “Δ RF” value (male Wistar rats [2]; 200 μg/kg i.v.) was “+12 ± 2 acts/min” and the Δ dp/dt (male Wistar rats [2]; 200 μg/kg i.v.) was “+1284 ± 78 mmHg/sec”. The “Δ AP DIAST” value (male Wistar rats [2]; 400 μg/kg i.v.) was -14 ± 3 mmHg, the “Δ AP SYST” value (male Wistar rats [2]; 400 μg/kg i.v.) was -15 ± 4 mmHg and the “Δ HR” value (male Wistar rats [2]; 400 μg/kg i.v.) was “+14 ± 5 beats/min”. The “Δ RF” value (male Wistar rats [2]; 400 μg/kg i.v.) was “+16 ± 3 acts/min”, the Δ dp/dt (male Wistar rats [2]; 400 μg/kg i.v.) was “+1712 ± 107 mmHg/sec” and the “Δ AP DIAST” value (male Wistar rats [2]; 800 μg/kg i.v.) was -15 ± 3 mmHg. For the same molecule, the “Δ AP SYST” value (male Wistar rats [2]; 800 μg/kg i.v.) was -17 ± 3 mmHg, the “Δ HR” value (male Wistar rats [2]; 800 μg/kg i.v.) was “+18 ± 4 beats/min” and the “Δ RF” value (male Wistar rats [2]; 800 μg/kg i.v.) was “+25 ± 6 acts/min”. The Δ dp/dt (male Wistar rats [2]; 800 μg/kg i.v.) was “+2140 ± 263 mmHg/sec”, the “Δ AP DIAST” value (male Wistar rats [2]; 1600 μg/kg i.v.) was -18 ± 4 mmHg and the “Δ AP SYST” value (male Wistar rats [2]; 1600 μg/kg i.v.) was -21 ± 6 mmHg. For the same molecule, the “Δ HR” value (male Wistar rats [2]; 1600 μg/kg i.v.) was “+22 ± 3 beats/min”, the “Δ RF” value (male Wistar rats [2]; 1600 μg/kg i.v.) was “+23 ± 9 acts/min” and the Δ dp/dt (male Wistar rats [2]; 1600 μg/kg i.v.) was “+2996 ± 104 mmHg/sec”. The “Δ AP DIAST” value (male Wistar rats [2]; 3200 μg/kg i.v.) was -29 ± 4 mmHg, the “Δ AP SYST” value (male Wistar rats [2]; 3200 μg/kg i.v.) was -25 ± 5 mmHg and the “Δ HR” value (male Wistar rats [2]; 3200 μg/kg i.v.) was “+25 ± 8 beats/min”. The “Δ RF” value (male Wistar rats [2]; 3200 μg/kg i.v.) was “+26 ± 7 acts/min”, the Δ dp/dt (male Wistar rats [2]; 3200 μg/kg i.v.) was “+2984 ± 362 mmHg/sec” and the “Δ AP DIAST” value (male Wistar rats [2]; 6400 μg/kg i.v.) was -29 ± 2 mmHg. The “Δ AP SYST” value (male Wistar rats [2]; 6400 μg/kg i.v.) was -34 ± 4 mmHg, the “Δ HR” value (male Wistar rats [2]; 6400 μg/kg i.v.) was “+20 ± 4 beats/min” and the “Δ RF” value (male Wistar rats [2]; 6400 μg/kg i.v.) was “+29 ± 5 acts/min”. The Δ dp/dt (male Wistar rats [2]; 6400 μg/kg i.v.) was “+3074 ± 441 mmHg/sec”, the “effect on AP (in words)” value (male Wistar rats [2]; i.v., 50-6400 μg/kg, rat) was “lowers the value of AP according to a linear dependence on the dose” and the “effect on HR, dp/dt and RF (in words)” value (male Wistar rats [2]; i.v., 50-6400 μg/kg, rat) was “causes an increase in the values of HR, dp/dt and RF”. For the same molecule, the “cardiovascular and respiratory effects (in words)” value (male Wistar rats [2]; i.v., rat) was “giving hypotensive responses while increasing heart rate and inotropism as well as respiratory rate”, the “changes in the tidal volume (TV) (in words)” value (male Wistar rats [2]; i.v., rat) was “a linear increase has been observed with the doses” and the “correlation with peripheral adrenergic receptors (α1-α2; β1-β2) (in words)” value (male Wistar rats [2]; i.v., rat) was “do not seem to be correlated to significative actions of the active ingredient at the level of the peripheral adrenergic receptors”. For the same molecule, the LD50 [3] was 57 mg/kg.

With `COc1ccc(Cc2nccc3cc(OC)c(OC)cc23)cc1OC` [Papaverine] the “Δ AP DIASTOLIC” value (male Wistar rats [1]; 2 mg/kg) was -18 ± 3 mmHg, the “Δ AP SYSTOLIC” value (male Wistar rats [1]; 2 mg/kg) was -23 ± 3 mmHg and the “Δ HR” value (male Wistar rats [1]; 2 mg/kg) was -21 ± 5 beats/min. For the same molecule, the Δ dp/dt (male Wistar rats [1]; 2 mg/kg) was -604 ± 102 mmHg/sec and the “general effects on the various haemodynamic parameters (in words)” value (male Wistar rats [1]; rat) was “general "depressive" effects”.

In the case of `C[N+](C)(C)CCCCCC[N+](C)(C)C` [Hexameton], the “Δ AP DIASTOLIC” value (male Wistar rats [1]; 2.5 mg/kg) is reported as -34 ± 2 mmHg, the “Δ AP SYSTOLIC” value (male Wistar rats [1]; 2.5 mg/kg) is reported as -44 ± 2 mmHg and the “Δ HR” value (male Wistar rats [1]; 2.5 mg/kg) is reported as -48 ± 9 beats/min. The Δ dp/dt (male Wistar rats [1]; 2.5 mg/kg) was -4040 ± 812 mmHg/sec.

In the case of `COc1ccc(C=CC(=O)NCCCCNC(=N)N)cc1OC` [guanido-V, 4-[(3,4-dimethoxycinnamoyl)amino]butylguanldine], the “Δ AP DIAST” value (male Wistar rats [2]; 200 μg/kg i.v.) is reported as 0 mmHg, the “Δ AP SYST” value (male Wistar rats [2]; 200 μg/kg i.v.) is reported as 0 mmHg and the “Δ HR” value (male Wistar rats [2]; 200 μg/kg i.v.) is reported as 0 beats/min. For the same molecule, the “Δ RF” value (male Wistar rats [2]; 200 μg/kg i.v.) was -7 ± 2%, the “Δ TV” value (male Wistar rats [2]; 200 μg/kg i.v.) was -14 ± 4% and the Δ dp/dt (male Wistar rats [2]; 200 μg/kg i.v.) was -392 ± 21 mmHg/sec. The “Δ AP DIAST” value (male Wistar rats [2]; 400 μg/kg i.v.) was -3 ± 1 mmHg, the “Δ AP SYST” value (male Wistar rats [2]; 400 μg/kg i.v.) was -4 ± 2 mmHg and the “Δ HR” value (male Wistar rats [2]; 400 μg/kg i.v.) was 0 beats/min. For the same molecule, the “Δ RF” value (male Wistar rats [2]; 400 μg/kg i.v.) was -3%, the “Δ TV” value (male Wistar rats [2]; 400 μg/kg i.v.) was -13 ± 2% and the Δ dp/dt (male Wistar rats [2]; 400 μg/kg i.v.) was -384 ± 39 mmHg/sec. For the same molecule, the “Δ AP DIAST” value (male Wistar rats [2]; 800 μg/kg i.v.) was -6 ± 2 mmHg, the “Δ AP SYST” value (male Wistar rats [2]; 800 μg/kg i.v.) was -5 ± 2 mmHg and the “Δ HR” value (male Wistar rats [2]; 800 μg/kg i.v.) was 0 beats/min. The “Δ RF” value (male Wistar rats [2]; 800 μg/kg i.v.) was -3 ± 2%, the “Δ TV” value (male Wistar rats [2]; 800 μg/kg i.v.) was “+12 ± 4%” and the Δ dp/dt (male Wistar rats [2]; 800 μg/kg i.v.) was -430 ± 43 mmHg/sec. The “Δ AP DIAST” value (male Wistar rats [2]; 1600 μg/kg i.v.) was -6 ± 2 mmHg, the “Δ AP SYST” value (male Wistar rats [2]; 1600 μg/kg i.v.) was -8 ± 3 mmHg and the “Δ HR” value (male Wistar rats [2]; 1600 μg/kg i.v.) was 0 beats/min. For the same molecule, the “Δ RF” value (male Wistar rats [2]; 1600 μg/kg i.v.) was -4 ± 1%, the “Δ TV” value (male Wistar rats [2]; 1600 μg/kg i.v.) was “+11 ± 3%” and the Δ dp/dt (male Wistar rats [2]; 1600 μg/kg i.v.) was -642 ± 76 mmHg/sec. For the same molecule, the “Δ AP DIAST” value (male Wistar rats [2]; 3200 μg/kg i.v.) was -9 ± 3 mmHg, the “Δ AP SYST” value (male Wistar rats [2]; 3200 μg/kg i.v.) was -10 ± 4 mmHg and the “Δ HR” value (male Wistar rats [2]; 3200 μg/kg i.v.) was 0 beats/min. For the same molecule, the “Δ RF” value (male Wistar rats [2]; 3200 μg/kg i.v.) was “+1 ± 1%”, the “Δ TV” value (male Wistar rats [2]; 3200 μg/kg i.v.) was “+20 ± 6%” and the Δ dp/dt (male Wistar rats [2]; 3200 μg/kg i.v.) was “+684 ± 38 mmHg/sec”. The “Δ AP DIAST” value (male Wistar rats [2]; 6400 μg/kg i.v.) was -15 ± 4 mmHg, the “Δ AP SYST” value (male Wistar rats [2]; 6400 μg/kg i.v.) was -11 ± 3 mmHg and the “Δ HR” value (male Wistar rats [2]; 6400 μg/kg i.v.) was -14 ± 6 beats/min. The “Δ RF” value (male Wistar rats [2]; 6400 μg/kg i.v.) was “+10 ± 4%”, the “Δ TV” value (male Wistar rats [2]; 6400 μg/kg i.v.) was “+22 ± 7%” and the Δ dp/dt (male Wistar rats [2]; 6400 μg/kg i.v.) was “+2354 ± 214 mmHg/sec”. The “Δ AP DIAST” value (male Wistar rats [2]; 12800 μg/kg i.v.) was -28 ± 4 mmHg, the “Δ AP SYST” value (male Wistar rats [2]; 12800 μg/kg i.v.) was -23 ± 5 mmHg and the “Δ HR” value (male Wistar rats [2]; 12800 μg/kg i.v.) was -49 ± 8 beats/min. The “Δ RF” value (male Wistar rats [2]; 12800 μg/kg i.v.) was “+11 ± 3%”, the “Δ TV” value (male Wistar rats [2]; 12800 μg/kg i.v.) was “+74 ± 8%” and the Δ dp/dt (male Wistar rats [2]; 12800 μg/kg i.v.) was “+2996 ± 170 mmHg/sec”. The “Δ AP DIAST” value (male Wistar rats [2]; 102400 μg/kg i.v.) was -30 ± 5 mmHg, the “Δ AP SYST” value (male Wistar rats [2]; 102400 μg/kg i.v.) was -24 ± 4 mmHg and the “Δ HR” value (male Wistar rats [2]; 102400 μg/kg i.v.) was -67 ± 11 beats/min. The “Δ RF” value (male Wistar rats [2]; 102400 μg/kg i.v.) was “+6 ± 4%”, the “Δ TV” value (male Wistar rats [2]; 102400 μg/kg i.v.) was “+79 ± 12%” and the Δ dp/dt (male Wistar rats [2]; 102400 μg/kg i.v.) was “+3040 ± 224 mmHg/sec”. For the same molecule, the “cardiovascular and respiratory effects (in words)” value (male Wistar rats [2]; i.v., rat) was “systolic and diastolic arterial hypotension, more evident from the dose of 3,200 μg/kg on; bradycardia was observed starting from the dose of 6,400 μg/kg, a slight reduction of dp/dt and RF appeared up to the highest doses; TV showed a similar trend”.
